{
  "source": "patent US9125913B2",
  "about": "“Bcl-2-selective apoptosis-inducing agents for the treatment of cancer and immune diseases” (AbbVie Inc., priority 2008, dated 2015)",
  "key": {"[1]": {"test_system": "GST-Bcl-2", "test": "TR-FRET binding assay, Bcl-2", "details": "TR-FRET Ki values", "procedure,_shortened": "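Ki values come from Wang's competitive-binding equation applied to TR-FRET signal (excitation 340/35 nm; emission 520/525 nm F-Bak peptide, 495/510 nm Tb antibody). Protein, probe and antibody incubated with compound 3 h at room temperature; dilution series began at 50 μM as 2× stock in 10% DMSO.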"}, "[2]": {"test_system": "FL5.12/Bcl-2 cells", "test": "FL5.12/Bcl-2 cell viability assay", "format": "cell-based, murine", "details": "ratio of canine platelet EC50 to FL5.12/Bcl-2 EC50", "excerpt": "FL5.12 is an IL-3 dependent prolymphocytic murine cell line that undergoes apoptosis upon IL-3 withdrawal as a result of the upregulation of pro-apoptotic Bcl-2 proteins such as Bim and Puma. Stable overexpression of anti-apoptotic Bcl-2 protein (FL5.12/Bcl-2) protects against apoptosis induced by IL-3 withdrawal by sequestration of Bim and Puma. […] The ability of compounds to kill FL5.12/Bcl-2 cells upon IL-3 withdrawal is a direct measure of the compounds' ability to inhibit anti-apoptotic Bcl-2 protein function.\nWild type FL5.12/Bcl-2 overexpressing stable transfectants were cultured in RPMI-1640 supplemented with 2 mM L-glutamine, 10% FBS, 1 mM sodium pyruvate, 2 mM HEPES, 1% penicillin/streptomycin (Invitrogen), 57 μM β-ME, and 10% WEHI-3B conditioned medium (source of IL-3) and maintained at 37° C. containing 5% CO2. 1×10^6 cells/ml were washed 1×PBS and resuspended in medium not supplemented with 10% WEHI-3B for 48 hrs prior to cytotoxicity assays. Cells were then treated for an additional 24 hrs in the presence of various concentrations of the indicated compounds. Cell viability was assessed by CellTitre Glo assay (Promega Corp.) according to the manufacturer's recommendations."}},
  "data": [
    {"smiles": "CC1(C)CCC(CN2CCN(c3ccc(C(=O)NS(=O)(=O)c4ccc(NCCCN5CCOCC5)c([N+](=O)[O-])c4)c(Oc4ccccc4)c3)CC2)=C(c2ccc(Cl)cc2)C1", "note": "[Example 18, 4-(4-{[2-(4-chlorophenyl)-4,4-dimethylcyclohex-1-en-1-yl]methyl}piperazin-1-yl)-N-({4-[(3-morpholin-4-ylpropyl)amino]-3-nitrophenyl}sulfonyl)-2-phenoxybenzamide]", "values": [
      {"measurement": "Binding selectivity ratio (Bcl-XL Ki/Bcl-2 Ki)", "setting": "[1]", "result": 34.2},
      {"measurement": "Selectivity Ratio (Platelet EC50/FL5.12/Bcl-2 EC50)", "setting": "[2]", "result": 241}
    ]},
    {"smiles": "CN1CCC(Nc2ccc(S(=O)(=O)NC(=O)c3ccc(N4CCN(CC5=C(c6ccc(Cl)cc6)CC(C)(C)CC5)CC4)cc3Oc3ccc4[nH]ncc4c3)cc2[N+](=O)[O-])CC1", "note": "[Example 21, 4-(4-{[2-(4-chlorophenyl)-4,4-dimethylcyclohex-1-en-1-yl]methyl}piperazin-1-yl)-2-(1H-indazol-5-yloxy)-N-({4-[(1-methylpiperidin-4-yl)amino]-3-nitrophenyl}sulfonyl)benzamide]", "values": [
      {"measurement": "Binding selectivity ratio (Bcl-XL Ki/Bcl-2 Ki)", "setting": "[1]", "result": 35.1},
      {"measurement": "Selectivity Ratio (Platelet EC50/FL5.12/Bcl-2 EC50)", "setting": "[2]", "result": ">49"}
    ]},
    {"smiles": "CC1(C)CCC(CN2CCN(c3ccc(C(=O)NS(=O)(=O)c4ccc(NCCCN5CCOCC5)c([N+](=O)[O-])c4)c(Oc4ccc5c(c4)CCCN5)c3)CC2)=C(c2ccc(Cl)cc2)C1", "note": "[Example 22, 4-(4-{[2-(4-chlorophenyl)-4,4-dimethylcyclohex-1-en-1-yl]methyl}piperazin-1-yl)-N-({4-[(3-morpholin-4-ylpropyl)amino]-3-nitrophenyl}sulfonyl)-2-(1,2,3,4-tetrahydroquinolin-6-yloxy)benzamide]", "values": [
      {"measurement": "Binding selectivity ratio (Bcl-XL Ki/Bcl-2 Ki)", "setting": "[1]", "result": 20.2},
      {"measurement": "Selectivity Ratio (Platelet EC50/FL5.12/Bcl-2 EC50)", "setting": "[2]", "result": ">61"}
    ]},
    {"smiles": "CN1CCC(Nc2ccc(S(=O)(=O)NC(=O)c3ccc(N4CCN(CC5=C(c6ccc(Cl)cc6)CC(C)(C)CC5)CC4)cc3Oc3ccc4c(c3)CCCN4)cc2[N+](=O)[O-])CC1", "note": "[Example 23, 4-(4-{[2-(4-chlorophenyl)-4,4-dimethylcyclohex-1-en-1-yl]methyl}piperazin-1-yl)-N-({4-[(1-methylpiperidin-4-yl)amino]-3-nitrophenyl}sulfonyl)-2-(1,2,3,4-tetrahydroquinolin-6-yloxy)benzamide]", "values": [
      {"measurement": "Binding selectivity ratio (Bcl-XL Ki/Bcl-2 Ki)", "setting": "[1]", "result": 25.3},
      {"measurement": "Selectivity Ratio (Platelet EC50/FL5.12/Bcl-2 EC50)", "setting": "[2]", "result": ">35"}
    ]},
    {"smiles": "O=C(NS(=O)(=O)c1ccc(NCC2CCOCC2)c([N+](=O)[O-])c1)c1ccc(N2CCN(Cc3cc(CN4CCCC4)ccc3-c3ccc(Cl)cc3)CC2)cc1Oc1cccc2[nH]ccc12", "note": "[Example 24, 4-(4-{[4′-chloro-4-(pyrrolidin-1-ylmethyl)-1,1′-biphenyl-2-yl]methyl}piperazin-1-yl)-2-(1H-indol-4-yloxy)-N-({3-nitro-4-[(tetrahydro-2H-pyran-4-ylmethyl)amino]phenyl}sulfonyl)benzamide]", "values": [
      {"measurement": "Binding selectivity ratio (Bcl-XL Ki/Bcl-2 Ki)", "setting": "[1]", "result": ">3402.1"},
      {"measurement": "Selectivity Ratio (Platelet EC50/FL5.12/Bcl-2 EC50)", "setting": "[2]", "result": ">906"}
    ]},
    {"smiles": "O=C(NS(=O)(=O)c1ccc(NCC2CCOCC2)c([N+](=O)[O-])c1)c1ccc(N2CCN(Cc3cc(CCN4CCCC4)ccc3-c3ccc(Cl)cc3)CC2)cc1Oc1cccc2[nH]ccc12", "note": "[Example 25, 4-(4-{[4′-chloro-4-(2-pyrrolidin-1-ylethyl)-1,1′-biphenyl-2-yl]methyl}piperazin-1-yl)-2-(1H-indol-4-yloxy)-N-({3-nitro-4-[(tetrahydro-2H-pyran-4-ylmethyl)amino]phenyl}sulfonyl)benzamide]", "values": [
      {"measurement": "Binding selectivity ratio (Bcl-XL Ki/Bcl-2 Ki)", "setting": "[1]", "result": 4103.8},
      {"measurement": "Selectivity Ratio (Platelet EC50/FL5.12/Bcl-2 EC50)", "setting": "[2]", "result": ">1020"}
    ]},
    {"smiles": "CC1(C)CCC(CN2CCN(c3ccc(C(=O)NS(=O)(=O)c4ccc(NC5CCN(C6CCCC6)CC5)c([N+](=O)[O-])c4)c(Oc4ccc5[nH]ccc5c4)c3)CC2)=C(c2ccc(Cl)cc2)C1", "note": "[Example 26, 4-(4-{[2-(4-chlorophenyl)-4,4-dimethylcyclohex-1-en-1-yl]methyl}piperazin-1-yl)-N-({4-[(1-cyclopentylpiperidin-4-yl)amino]-3-nitrophenyl}sulfonyl)-2-(1H-indol-5-yloxy)benzamide]", "values": [
      {"measurement": "Binding selectivity ratio (Bcl-XL Ki/Bcl-2 Ki)", "setting": "[1]", "result": ">4714.3"},
      {"measurement": "Selectivity Ratio (Platelet EC50/FL5.12/Bcl-2 EC50)", "setting": "[2]", "result": ">1429"}
    ]},
    {"smiles": "CN(C)CCCOc1ccc(S(=O)(=O)NC(=O)c2ccc(N3CCN(CC4=C(c5ccc(Cl)cc5)CC(C)(C)CC4)CC3)cc2Oc2cccc3[nH]ccc23)cc1[N+](=O)[O-]", "note": "[Example 106, 4-(4-{[2-(4-chlorophenyl)-4,4-dimethylcyclohex-1-en-1-yl]methyl}piperazin-1-yl)-N-({4-[3-(dimethylamino)propoxy]-3-nitrophenyl}sulfonyl)-2-(1H-indol-4-yloxy)benzamide]", "values": [
      {"measurement": "Selectivity Ratio (Platelet EC50/FL5.12/Bcl-2 EC50)", "setting": "[2]", "result": 1657}
    ]},
    {"smiles": "O=C(NS(=O)(=O)c1ccc(NCCn2ccnn2)c([N+](=O)[O-])c1)c1ccc(N2CCN(Cc3ccccc3-c3ccc(Cl)cc3)CC2)cc1Oc1ccccc1", "note": "[Example 164, 4-{4-[(4′-chloro-1,1′-biphenyl-2-yl)methyl]piperazin-1-yl}-N-[(3-nitro-4-{[2-(1H-1,2,3-triazol-1-yl)ethyl]amino}phenyl)sulfonyl]-2-phenoxybenzamide]", "values": [
      {"measurement": "Binding selectivity ratio (Bcl-XL Ki/Bcl-2 Ki)", "setting": "[1]", "result": 143.3}
    ]},
    {"smiles": "O=C(NS(=O)(=O)c1ccc(NCCn2nccn2)c([N+](=O)[O-])c1)c1ccc(N2CCN(Cc3ccccc3-c3ccc(Cl)cc3)CC2)cc1Oc1ccccc1", "note": "[Example 165, 4-{4-[(4′-chloro-1,1′-biphenyl-2-yl)methyl]piperazin-1-yl}-N-[(3-nitro-4-{[2-(2H-1,2,3-triazol-2-yl)ethyl]amino}phenyl)sulfonyl]-2-phenoxybenzamide]", "values": [
      {"measurement": "Binding selectivity ratio (Bcl-XL Ki/Bcl-2 Ki)", "setting": "[1]", "result": 44.5}
    ]},
    {"smiles": "O=C(NS(=O)(=O)c1ccc(NCCc2ccncc2)c([N+](=O)[O-])c1)c1ccc(N2CCN(Cc3ccccc3-c3ccc(Cl)cc3)CC2)cc1Oc1ccccc1", "note": "[Example 169, 4-{4-[(4′-chloro-1,1′-biphenyl-2-yl)methyl]piperazin-1-yl}-N-({3-nitro-4-[(2-pyridin-4-ylethyl)amino]phenyl}sulfonyl)-2-phenoxybenzamide]", "values": [
      {"measurement": "Binding selectivity ratio (Bcl-XL Ki/Bcl-2 Ki)", "setting": "[1]", "result": 91.4}
    ]},
    {"smiles": "CC(c1ccccc1-c1ccc(Cl)cc1)N1CCN(c2ccc(C(=O)NS(=O)(=O)c3ccc(NCC4CCOCC4)c([N+](=O)[O-])c3)c(Oc3cccc4[nH]ccc34)c2)CC1", "note": "(stereo not drawn) [Example 175, 4-{4-[1-(4′-chloro-1,1′-biphenyl-2-yl)ethyl]piperazin-1-yl}-2-(1H-indol-4-yloxy)-N-({3-nitro-4-[(tetrahydro-2H-pyran-4-ylmethyl)amino]phenyl}sulfonyl)benzamide]", "values": [
      {"measurement": "Binding selectivity ratio (Bcl-XL Ki/Bcl-2 Ki)", "setting": "[1]", "result": ">6600"}
    ]},
    {"smiles": "CC1(C)CCC(CN2CCN(c3ccc(C(=O)NS(=O)(=O)c4ccc(NCC5(N)CCOCC5)c([N+](=O)[O-])c4)c(Oc4cccc5[nH]ccc45)c3)CC2)=C(c2ccc(Cl)cc2)C1", "note": "[Example 176, N-[(4-{[(4-aminotetrahydro-2H-pyran-4-yl)methyl]amino}-3-nitrophenyl)sulfonyl]-4-(4-{[2-(4-chlorophenyl)-4,4-dimethylcyclohex-1-en-1-yl]methyl}piperazin-1-yl)-2-(1H-indol-4-yloxy)benzamide]", "values": [
      {"measurement": "Binding selectivity ratio (Bcl-XL Ki/Bcl-2 Ki)", "setting": "[1]", "result": 177.8}
    ]},
    {"smiles": "CC1(C)CCC(CN2CCN(c3ccc(C(=O)NS(=O)(=O)c4ccc(NCC5CCOCC5)c([N+](=O)[O-])c4)c(Oc4ccc5[nH]ccc5c4)c3)CC2)=C(c2ccc(Cl)cc2)C1", "note": "[Example 177, 4-(4-{[2-(4-chlorophenyl)-4,4-dimethylcyclohex-1-en-1-yl]methyl}piperazin-1-yl)-2-(1H-indol-5-yloxy)-N-({3-nitro-4-[(tetrahydro-2H-pyran-4-ylmethyl)amino]phenyl}sulfonyl)benzamide]", "values": [
      {"measurement": "Binding selectivity ratio (Bcl-XL Ki/Bcl-2 Ki)", "setting": "[1]", "result": 799.7}
    ]},
    {"smiles": "CC1(C)CCC(CN2CCN(c3ccc(C(=O)NS(=O)(=O)c4ccc(N[C@H]5CC[C@H](N6CCOCC6)CC5)c([N+](=O)[O-])c4)c(Oc4ccc5[nH]ccc5c4)c3)CC2)=C(c2ccc(Cl)cc2)C1", "note": "[Example 178, Trans-4-(4-{[2-(4-chlorophenyl)-4,4-dimethylcyclohex-1-en-1-yl]methyl}piperazin-1-yl)-2-(1H-indol-5-yloxy)-N-({4-[(4-morpholin-4-ylcyclohexyl)amino]-3-nitrophenyl}sulfonyl)benzamide]", "values": [
      {"measurement": "Binding selectivity ratio (Bcl-XL Ki/Bcl-2 Ki)", "setting": "[1]", "result": ">2915.8"}
    ]},
    {"smiles": "COCCNc1ccc(S(=O)(=O)NC(=O)c2ccc(N3CCN(CC4=C(c5ccc(Cl)cc5)CC(C)(C)CC4)CC3)cc2Oc2ccc3[nH]ccc3c2)cc1[N+](=O)[O-]", "note": "[Example 179, 4-(4-{[2-(4-chlorophenyl)-4,4-dimethylcyclohex-1-en-1-yl]methyl}piperazin-1-yl)-2-(1H-indol-5-yloxy)-N-({4-[(2-methoxyethyl)amino]-3-nitrophenyl}sulfonyl)benzamide]", "values": [
      {"measurement": "Binding selectivity ratio (Bcl-XL Ki/Bcl-2 Ki)", "setting": "[1]", "result": ">3642.4"}
    ]},
    {"smiles": "CN(C)CC(=O)N1CCO[C@@H](COc2ncc(S(=O)(=O)NC(=O)c3ccc(N4CCN(CC5=C(c6ccc(Cl)cc6)CC(C)(C)CC5)CC4)cc3Oc3cccc4[nH]ncc34)cc2Cl)C1", "note": "[compound 426, N-[(5-chloro-6-{[(2R)-4-(N,N-dimethylglycyl)morpholin-2-yl]methoxy}pyridin-3-yl)sulfonyl]-4-(4-{[2-(4-chlorophenyl)-4,4-dimethylcyclohex-1-en-1-yl]methyl}piperazin-1-yl)-2-(1H-indazol-4-yloxy)benzamide]", "values": [
      {"measurement": "Binding selectivity ratio (Bcl-XL Ki/Bcl-2 Ki)", "setting": "[1]", "result": 604.2}
    ]}
  ]
}
